Results: PubChem BioAssay (NCI)
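How tested: cells in 96-well plates exposed to compound for 48 hours at five concentrations. At the GI50, growth is halved. TGI: concentration producing complete growth inhibition.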

Legend:
Assay in all cases: inhibition of tumour cell growth, NCI panel, 48 h
NCI-H23 lung = tested on: NCI-H23 lung
NCI-H460 lung = tested on: NCI-H460 lung
NCI-H522 lung = tested on: NCI-H522 lung
NCI/ADR-RES ovarian = tested on: NCI/ADR-RES ovarian
OVCAR-3 ovarian = tested on: OVCAR-3 ovarian
OVCAR-4 ovarian = tested on: OVCAR-4 ovarian
OVCAR-5 ovarian = tested on: OVCAR-5 ovarian
OVCAR-8 ovarian = tested on: OVCAR-8 ovarian
PC-3 prostate = tested on: PC-3 prostate
RPMI-8226 leukemia = tested on: RPMI-8226 leukemia
RXF 393 renal = tested on: RXF 393 renal
SF-268 CNS = tested on: SF-268 CNS
SF-295 CNS = tested on: SF-295 CNS
SF-539 CNS = tested on: SF-539 CNS
SK-MEL-2 melanoma = tested on: SK-MEL-2 melanoma
SK-MEL-28 melanoma = tested on: SK-MEL-28 melanoma
SK-MEL-5 melanoma = tested on: SK-MEL-5 melanoma
SK-OV-3 ovarian = tested on: SK-OV-3 ovarian
SN12C renal = tested on: SN12C renal
SNB-19 CNS = tested on: SNB-19 CNS
SNB-75 CNS = tested on: SNB-75 CNS
SR leukemia = tested on: SR leukemia
SW-620 colon = tested on: SW-620 colon
T-47D breast = tested on: T-47D breast
TK-10 renal = tested on: TK-10 renal
U251 CNS = tested on: U251 CNS
UACC-257 melanoma = tested on: UACC-257 melanoma
UACC-62 melanoma = tested on: UACC-62 melanoma
UO-31 renal = tested on: UO-31 renal

`COC(=O)[C@H]1[C@@H](O)[C@@]2(O)c3c(OC)cc(OC)cc3O[C@@]2(c2ccc(OC)cc2)[C@@H]1c1ccccc1` gave a TGI (NCI-H23 lung) of 146 nM, a GI50 (NCI-H460 lung) of 5.37 nM and a TGI (NCI-H460 lung) of 653 nM. It also gave a GI50 (NCI-H522 lung) of 17 nM, a TGI (NCI-H522 lung) of 106 nM and a GI50 (NCI/ADR-RES ovarian) of 19.8 nM. It also gave a TGI (NCI/ADR-RES ovarian) of 101 nM, a GI50 (OVCAR-3 ovarian) of 22.3 nM and a TGI (OVCAR-3 ovarian) of 304 nM. The GI50 (OVCAR-4 ovarian) was 26.6 nM, the TGI (OVCAR-4 ovarian) was 659 nM and the GI50 (OVCAR-5 ovarian) was 40.3 nM. It also gave a TGI (OVCAR-5 ovarian) of 1030 nM, a GI50 (OVCAR-8 ovarian) of 32.7 nM and a TGI (OVCAR-8 ovarian) of 408 nM. The GI50 (PC-3 prostate) was 18.6 nM, the TGI (PC-3 prostate) was 6250 nM and the GI50 (RPMI-8226 leukemia) was 19.2 nM. The TGI (RPMI-8226 leukemia) was 339 nM, the GI50 (RXF 393 renal) was 10.5 nM and the TGI (RXF 393 renal) was 78.2 nM. For the same compound, the GI50 (SF-268 CNS) was 25.6 nM, the TGI (SF-268 CNS) was 492 nM and the GI50 (SF-295 CNS) was 14.1 nM. For the same compound, the TGI (SF-295 CNS) was 126 nM, the GI50 (SF-539 CNS) was 7.9 nM and the TGI (SF-539 CNS) was 72 nM. The GI50 (SK-MEL-2 melanoma) was 29.2 nM, the TGI (SK-MEL-2 melanoma) was 89.6 nM and the GI50 (SK-MEL-28 melanoma) was 26.1 nM. The TGI (SK-MEL-28 melanoma) was 277 nM, the GI50 (SK-MEL-5 melanoma) was 18.2 nM and the TGI (SK-MEL-5 melanoma) was 81.4 nM. For the same compound, the GI50 (SK-OV-3 ovarian) was 11.9 nM, the TGI (SK-OV-3 ovarian) was 231 nM and the GI50 (SN12C renal) was 19 nM. For the same compound, the TGI (SN12C renal) was 214 nM, the GI50 (SNB-19 CNS) was 16.2 nM and the TGI (SNB-19 CNS) was 716 nM. It also gave a GI50 (SNB-75 CNS) of 42.9 nM, a TGI (SNB-75 CNS) of 1250 nM and a GI50 (SR leukemia) of 14.2 nM. It also gave a TGI (SR leukemia) of 16700 nM, a GI50 (SW-620 colon) of 9.12 nM and a TGI (SW-620 colon) of 2320 nM. The GI50 (T-47D breast) was 7.22 nM, the TGI (T-47D breast) was 103 nM and the GI50 (TK-10 renal) was 45.5 nM. For the same compound, the TGI (TK-10 renal) was 166 nM, the GI50 (U251 CNS) was 23.8 nM and the TGI (U251 CNS) was 749 nM. It also gave a GI50 (UACC-257 melanoma) of 44.8 nM, a TGI (UACC-257 melanoma) of 143 nM and a GI50 (UACC-62 melanoma) of 38.3 nM. For the same compound, the TGI (UACC-62 melanoma) was 569 nM, the GI50 (UO-31 renal) was under 17.2 nM and the TGI (UO-31 renal) was 129 nM.
